In data set [1] the target is T1, ATP-dependent translocase ABCB1 (Homo sapiens, UniProt P08183). In words: TP_TRANSPORTER: transepithelial transport of tacrolimus (apical to basal) (Tacrolimus: 1.38-1.48uM) in MDR1-expressing LLC-GA5-COL150 cell. Format: functional, cell-based. Conditions: pig.
The target of data set [2] is T1, ATP-dependent translocase ABCB1. Nature of the data set: TP_TRANSPORTER: transepithelial transport of digoxin (apical to basal) (Digoxin: 20-30uM) in MDR1-expressing LLC-GA5-COL150 cell. The data set is classed as functional, cell-based. Conditions: pig.

T1 sequence (P08183 whole entry): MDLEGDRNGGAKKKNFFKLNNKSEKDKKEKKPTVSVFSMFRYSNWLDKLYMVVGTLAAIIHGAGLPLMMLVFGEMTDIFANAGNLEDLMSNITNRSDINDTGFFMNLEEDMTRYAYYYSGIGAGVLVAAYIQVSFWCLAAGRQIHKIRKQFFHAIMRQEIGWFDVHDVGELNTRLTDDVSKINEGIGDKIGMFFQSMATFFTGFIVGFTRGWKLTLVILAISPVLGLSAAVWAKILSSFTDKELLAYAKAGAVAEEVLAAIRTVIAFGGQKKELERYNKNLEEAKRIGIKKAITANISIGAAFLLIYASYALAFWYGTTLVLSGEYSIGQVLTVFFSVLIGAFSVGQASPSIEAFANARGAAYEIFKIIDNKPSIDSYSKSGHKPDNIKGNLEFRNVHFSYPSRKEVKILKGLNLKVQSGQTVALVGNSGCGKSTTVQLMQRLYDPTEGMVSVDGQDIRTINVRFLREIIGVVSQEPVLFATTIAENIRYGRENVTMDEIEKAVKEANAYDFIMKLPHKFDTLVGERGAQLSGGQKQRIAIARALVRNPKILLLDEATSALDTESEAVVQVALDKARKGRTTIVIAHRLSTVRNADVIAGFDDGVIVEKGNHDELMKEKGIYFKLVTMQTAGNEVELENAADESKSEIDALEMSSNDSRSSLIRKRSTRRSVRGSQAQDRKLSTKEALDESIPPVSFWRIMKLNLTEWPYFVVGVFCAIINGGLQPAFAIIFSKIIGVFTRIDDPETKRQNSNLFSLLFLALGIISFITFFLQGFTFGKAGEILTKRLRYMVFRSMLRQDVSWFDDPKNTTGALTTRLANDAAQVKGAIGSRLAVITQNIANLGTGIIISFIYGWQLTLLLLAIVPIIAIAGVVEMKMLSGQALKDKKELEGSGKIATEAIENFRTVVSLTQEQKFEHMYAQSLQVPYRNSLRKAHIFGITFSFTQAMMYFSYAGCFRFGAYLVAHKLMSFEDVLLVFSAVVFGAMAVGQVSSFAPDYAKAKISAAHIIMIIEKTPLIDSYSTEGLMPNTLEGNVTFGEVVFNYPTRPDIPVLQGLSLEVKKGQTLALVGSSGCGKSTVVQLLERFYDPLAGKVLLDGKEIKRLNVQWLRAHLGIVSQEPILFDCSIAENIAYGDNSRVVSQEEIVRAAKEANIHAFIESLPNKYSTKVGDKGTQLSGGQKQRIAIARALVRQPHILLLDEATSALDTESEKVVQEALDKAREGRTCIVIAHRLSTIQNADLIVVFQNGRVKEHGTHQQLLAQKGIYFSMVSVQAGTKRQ

With BANPEIYU, the Activity entry in data set [1] and in data set [2] was “inhibitor [+]” throughout.
In the case of GRAPEFRUIT JUICE, the Activity entry in data set [1] and in data set [2] was “inhibitor [+]” throughout.
Consider `CC[C@H]1OC(=O)[C@H](C)[C@@H](O[C@H]2C[C@@](C)(OC)[C@@H](O)[C@H](C)O2)[C@H](C)[C@@H](O[C@@H]2O[C@H](C)C[C@H](N(C)C)[C@H]2O)[C@](C)(OC)C[C@@H](C)C(=O)[C@H](C)[C@@H](O)[C@]1(C)O` [CLARITHROMYCIN], for which the Activity result in data set [2] is “inhibitor [+]”.
